# Data reported in article PMC12047801, “Disrupting the OTUD4-USP7 deubiquitinase complex to suppress herpesvirus replication: a novel antiviral strategy” (PLOS Pathogens, 2025).
# Several values for one entry are separate records, joined by “and”; a condition that tells them apart may be missing. Equal entries are not always repeated. Where two headings read alike, the source gives them in different places. Where a SMILES comes first, the peptide text is derived from it.
# Experiments:
# KSHV lytic replication = conditions: cited from earlier work
# Excerpt: In KSHV-associated cancers, such as Kaposi’s sarcoma (KS), tumor cells predominantly display latent viral infection, while spontaneous reactivation takes place in only 1–3% of infected cells. […] Despite the low percentage of lytic cells, lytic replication plays a critical role in KS pathogenesis. Firstly, the production and release of infectious KSHV particles sustain the latently infected cell population by compensating for episomal loss duri ... || KSHV is the etiological agent of Kaposi’s sarcoma (KS) and primary effusion lymphoma (PEL), and contributes to other malignancies such as multicentric Castleman’s disease (MCD). […] Therefore, KSHV antiviral treatments, including those aimed at inhibiting lytic replication, are actively being developed. […] MMV1645152, identified from the Medicines for Malaria Venture (MMV) Pandemi ...
# USP7-TRAF domain = target: T1, USP7-TRAF domain (Homo sapiens, UniProt Q93009); experiment: Surface plasmon resonance (SPR) analysis of peptide binding to USP7-TRAF
# T1 construct: The TRAF domain of human and murine USP7 (1-208 aa) was subcloned into pGEX-6p-1; GST (N); made in house; host or cells: E. coli BL21 (DE3)
# [1] = system: interaction between OTUD4 and USP7-TRAF; experiment: GST pull-down competition assay, human USP7-TRAF and FLAG-OTUD4; assay type: binding; conditions: 100 μM, 4 h
# [2] = system: KSHV lytic reactivation in SLK.iBAC-GFP cells; assay type: cell-based; conditions: for IC50: Dox + sodium butyrate, mean ± s.d. of N = 3
# Description: (A) Graphical illustration showing the rationale underlying our peptide design. (B) Surface Plasmon Resonance (SPR) analysis assessing the interaction of the USP7-TRAF domain with the designed peptides p2 and p8. (C) SLK.iBAC-GFP cells were induced with doxycycline (Dox, 1 μg/mL) and sodium butyrate (0.5 mM) in the presence of the Tat fusion peptides (100 μM). All the peptides were fused to an N-terminal Tat47-57 peptide ([…]) via a flexible GG linker. The supernatants containing infectious virions were collected 48 h post-induction and used to infect HEK293T cells. KSHV infectious units were calculated based on the percentage of GFP-positive cells determined by flow cytometry. Data are mean ± s.d. of N = 3 independent biological replicates. (D) SLK.iBAC-GFP cells were induced with doxycycline (Dox, 1 μg/mL) and sodium butyrate (0.5 mM) in the presence of increasing amount of p8 (0, 10, 50, 100 μM). KSHV infectious units were determined 48 h post-induction. Data are mean ± s.d. of N = 3 independent biological replicates. […] Data are mean ± s.d. of N = 3 independent biological replicates. […] Cell viability was assessed by measuring ATP levels 48 h post-induction. Data are mean ± s.d. of N = 3 independent biological replicates.
# Peptides p1 to p12 (S1A Fig) were synthesized by Sangon Biotech (Shanghai, China) with 95% purity. The Tat-fused peptides in Fig 1C consisted of the corresponding peptides conjugated to the Tat47-57 peptide ([…]) and two glycine linker residues (QYAOBIO, Suzhou, China). The peptides p8-DRI (nssqsasqnvpprrrqrrkkrGy) and p2-DRI (iesndedavepprrrqrrkkrGy) were synthesized using D-amino acids in a retro-reversed sequence with 95% purity (QYAOBIO, Suzhou, China). The peptide p8-m ([…]) was synthesized with 95% purity (QYAOBIO, Suzhou, China). All the peptides were acetylated at the N-terminus and amidated at the C-terminus to mimic the native peptide structure. The peptides were dissolved in PBS to prepare 1 mM stock solutions for in vitro experiments and 5 mg/ml stock solutions for in vivo experiments.
# SLK.iBAC-GFP cells were treated with Dox (1 μg/ml) and sodium butyrate (0.5 mM) to induce lytic reactivation in the presence of indicated peptides (100 μM). The supernatants were collected at the specified time points and used to infect HEK293T cells at appropriate dilutions. The infected cells were collected, fixed, and analyzed by flow cytometry 24 h post-infection. FlowJo 10.0 software was used to analyze the data, and KSHV infectious units were quantified based on the percentage of GFP-positive cells.
# [3] = system: Kaposi's sarcoma (KS) progression; conditions: cited from earlier work
# [4] = system: lung pathology in MHV68-infected Otud4fl/fl Cre-ERT2 mice; assay type: in vivo; conditions: for Histological score of lungs: Fig. 5I
# [5] = system: MHV68 in Otud4fl/fl Cre-ERT2 mice; assay type: in vivo; conditions: 5 mg/kg
# [6] = system: lung inflammation in MHV68-infected C57BL/6 mice; assay type: in vivo; conditions: Fig 5F, 5 mg/kg, 5 days post-infection, vs vehicle
# Description: Fig 5 P8-DRI restricts MHV68 Infection in vivo. (A-B) MLF cells were infected with MHV68 (MOI, 0.01) and treated with the indicated peptides (100 µM). Viral titer was determined by plaque assays 48 h post-infection (A). Viral gene expression was assessed by RT-qPCR (B). Data are mean ± s.d. of N = 3 independent biological replicates. […] Data are mean ± s.d. of N = 3 independent biological replicates. (D-E) C57BL/6 mice were intranasally inoculated with MHV68 (4000 PFU) and administrated with p8-DRI (5 mg/kg of body weight) or vehicle control (n = 6 per group). Viral loads in lung tissues were quantified at 5 days post-infection (D). Viral gene expression in lung tissues was measured by RT-qPCR at 5 days post-infection (E). Data are mean ± s.d. of N = 6 independent biological replicates. […] Viral titers in lung tissues were determined at 5 days post-infection (G). Viral gene expression in lung tissues was assessed by RT-qPCR (H). […] (I) H&E staining of lung tissue sections from MHV68-infected Otud4^^fl/fl Cre-ERT2^-/- and Otud4^^fl/fl Cre-ERT2^+/- mice treated with p8-DRI or vehicle control, analyzed at 5 days post-infection. […]
# Mouse lung tissue samples were fixed in 10% formalin solution (Sigma) overnight. […] The tissue sections were stained using standard H&E staining protocols and analyzed microscopically.
# MHV68 in C57BL/6 mice [7] = experiment: Viral loads/titers in lungs of MHV68-infected C57BL/6 mice; assay type: in vivo; conditions: 5 days post-infection
# MHV68 in C57BL/6 mice [8] = assay type: in vivo; conditions: Fig 5E, 5 mg/kg, 5 days post-infection
# Description: Fig 5 P8-DRI restricts MHV68 Infection in vivo. (A-B) MLF cells were infected with MHV68 (MOI, 0.01) and treated with the indicated peptides (100 µM). Viral titer was determined by plaque assays 48 h post-infection (A). Viral gene expression was assessed by RT-qPCR (B). Data are mean ± s.d. of N = 3 independent biological replicates. […] Data are mean ± s.d. of N = 3 independent biological replicates. (D-E) C57BL/6 mice were intranasally inoculated with MHV68 (4000 PFU) and administrated with p8-DRI (5 mg/kg of body weight) or vehicle control (n = 6 per group). Viral loads in lung tissues were quantified at 5 days post-infection (D). Viral gene expression in lung tissues was measured by RT-qPCR at 5 days post-infection (E). Data are mean ± s.d. of N = 6 independent biological replicates. (F) H&E staining of lung tissue sections from MHV68-infected mice treated with p8-DRI or vehicle 5 days post-infection. Scale bars, 500 µm (left) and 100 µm (right). […] Viral titers in lung tissues were determined at 5 days post-infection (G). Viral gene expression in lung tissues was assessed by RT-qPCR (H). […] (I) H&E staining of lung tissue sections from MHV68-infected Otud4^^fl/fl Cre-ERT2^-/- and Otud4^^fl/fl Cre-ERT2^+/- mice treated with p8-DRI or vehicle control, analyzed at 5 days post-infection. […]
# T1 sequence (Q93009 1-208): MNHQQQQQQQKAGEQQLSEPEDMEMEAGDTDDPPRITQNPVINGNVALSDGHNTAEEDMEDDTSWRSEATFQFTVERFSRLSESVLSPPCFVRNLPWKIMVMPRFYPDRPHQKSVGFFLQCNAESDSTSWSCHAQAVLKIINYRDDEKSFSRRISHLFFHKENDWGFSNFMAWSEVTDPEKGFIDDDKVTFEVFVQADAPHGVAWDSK
molecule,measurement,setting,value
Cc1c(O)cccc1C(=O)N[C@@H](CSc1ccccc1)[C@H](O)CN1C[C@H]2CCCC[C@H]2C[C@H]1C(=O)NC(C)(C)C [Nelfinavir],Inhibition of KSHV virion production (in words),KSHV lytic replication,prevents mature virion production
Nc1nc(O)c(Br)c(-c2cccc(Cl)c2)n1 [MMV1645152],Inhibition of KSHV lytic replication (in words),KSHV lytic replication,effectively blocking KSHV lytic replication
Ac-YGRKKRRQRRRGGEVADEDNSEI-NH2 [p2],Binding to the USP7-TRAF domain (in words),USP7-TRAF domain,specifically bound to the USP7-TRAF domain
same,Disruption of OTUD4/USP7-TRAF interaction (in words),[1],failed to disrupt the interaction between USP7-TRAF and OTUD4
same,"IC50, KSHV lytic reactivation (in words)","[2]; SLK.iBAC-GFP cells, Tat-fused peptide",could not be determined due to its low antiviral activity
same,Inhibition of KSHV lytic reactivation (in words),"[2]; Tat-fused peptides, 100 μM or dose series, 48 h post-induction",no significant inhibition
Nc1nc(O)c2ncn(COC(CO)CO)c2n1 [Ganciclovir],Inhibition of KSHV lytic replication (in words),KSHV lytic replication; nucleoside analogue,inhibits KSHV lytic replication
same,Prevention of KS progression (in words),[3],remarkable efficacy in randomized clinical trials for preventing KS progression
CC(=O)N[C@H](CC(N)=O)C(=O)N[C@H](CO)C(=O)N[C@H](CO)C(=O)N[C@H](CCC(N)=O)C(=O)N[C@H](CO)C(=O)N[C@H](C)C(=O)N[C@H](CO)C(=O)N[C@H](CCC(N)=O)C(=O)N[C@H](CC(N)=O)C(=O)N[C@@H](C(=O)N1CCC[C@@H]1C(=O)N1CCC[C@@H]1C(=O)N[C@H](CCCNC(=N)N)C(=O)N[C@H](CCCNC(=N)N)C(=O)N[C@H](CCCNC(=N)N)C(=O)N[C@H](CCC(N)=O)C(=O)N[C@H](CCCNC(=N)N)C(=O)N[C@H](CCCNC(=N)N)C(=O)N[C@H](CCCCN)C(=O)N[C@H](CCCCN)C(=O)N[C@H](CCCNC(=N)N)C(=O)NCC(=O)N[C@H](Cc1ccc(O)cc1)C(N)=O)C(C)C [p8-DRI] (HELM PEPTIDE1{[ac].[dN].[dS].[dS].[dQ].[dS].[dA].[dS].[dQ].[dN].[dV].[dP].[dP].[dR].[dR].[dR].[dQ].[dR].[dR].[dK].[dK].[dR].G.[dY].[am]}$$$$V2.0),Histological score of lungs,"[4]; OTUD4 KO mice, replicate 1",1
same,Histological score of lungs,"[4]; OTUD4 KO mice, replicate 2",1
same,Histological score of lungs,"[4]; OTUD4 KO mice, replicate 3",1
same,Histological score of lungs,"[4]; OTUD4 KO mice, replicate 4",2
same,Histological score of lungs,"[4]; OTUD4 KO mice, replicate 5",3
same,Histological score of lungs,"[4]; OTUD4 WT mice, replicate 1",1
same,Histological score of lungs,"[4]; OTUD4 WT mice, replicate 2",1
same,Histological score of lungs,"[4]; OTUD4 WT mice, replicate 3",1
same,Histological score of lungs,"[4]; OTUD4 WT mice, replicate 4",2
same,Histological score of lungs,"[4]; OTUD4 WT mice, replicate 5",3
same,Viral pathology in OTUD4-replete mice (in words),"[4]; Otud4fl/fl Cre-ERT2-/-, 5 mg/kg, vs vehicle",reduced viral pathology
same,Binding affinity for USP7-TRAF relative to p8 (in words),USP7-TRAF domain; N = 3 (S5H Fig),remained comparable to that of p8
same,Antiviral effect in OTUD4-deficient mice (in words),"[5]; Figs 5G-5I, Otud4fl/fl Cre-ERT2+/- + tamoxifen",abolished in OTUD4-deficient mice
same,Viral titers in lungs of OTUD4-replete mice (in words),"[5]; Otud4fl/fl Cre-ERT2-/-, vs vehicle",lower viral titers in lung tissues
same,Lung inflammation and immune cell infiltration (in words),[6],less inflammation and immune cell infiltration in the lungs
same,IC50,[2]; SLK.iBAC-GFP cells,9.23 ± 1.29 µM
same,Viral titers in lung tissues (in words),"MHV68 in C57BL/6 mice [7]; Fig 5D, 5 mg/kg, vs vehicle",lower viral titers in lung tissues
same,Viral loads in lung tissues,"MHV68 in C57BL/6 mice [7]; Fig. 5D, 5 mg/kg p8-DRI, MHV68 4000 PFU intranasal, single animals, one line per mouse (n = 6)",12.8424 and 18.8481 and 2.1041 and 7.7972 and 13.617 and 0.6389
same,"MHV68 viral gene transcription (ORF50, ORF9, ORF25) in lungs (in words)",MHV68 in C57BL/6 mice [8],significantly reduced
CC[C@@H](C)[C@@H](NC(C)=O)C(=O)N[C@H](CCC(=O)O)C(=O)N[C@H](CO)C(=O)N[C@H](CC(N)=O)C(=O)N[C@H](CC(=O)O)C(=O)N[C@H](CCC(=O)O)C(=O)N[C@H](CC(=O)O)C(=O)N[C@H](C)C(=O)N[C@@H](C(=O)N[C@H](CCC(=O)O)C(=O)N1CCC[C@@H]1C(=O)N1CCC[C@@H]1C(=O)N[C@H](CCCNC(=N)N)C(=O)N[C@H](CCCNC(=N)N)C(=O)N[C@H](CCCNC(=N)N)C(=O)N[C@H](CCC(N)=O)C(=O)N[C@H](CCCNC(=N)N)C(=O)N[C@H](CCCNC(=N)N)C(=O)N[C@H](CCCCN)C(=O)N[C@H](CCCCN)C(=O)N[C@H](CCCNC(=N)N)C(=O)NCC(=O)N[C@H](Cc1ccc(O)cc1)C(N)=O)C(C)C [p2-DRI] (HELM PEPTIDE1{[ac].[dI].[dE].[dS].[dN].[dD].[dE].[dD].[dA].[dV].[dE].[dP].[dP].[dR].[dR].[dR].[dQ].[dR].[dR].[dK].[dK].[dR].G.[dY].[am]}$$$$V2.0),IC50,[2]; SLK.iBAC-GFP cells,67.4 ± 34.1 µM
CCc1cc(-c2n[nH]c(C)c2-c2ccc3c(c2)OCCO3)c(O)cc1O [CCT018159],Inhibition of KSHV lytic replication and virion production (in words),KSHV lytic replication; UAP56 ATPase inhibitor,successfully blocks KSHV lytic replication and infectious virion production
